Assay results: patent US20230141101A1, “PDE4 INHIBITOR COMPOUND AND MEDICAL USE THEREOF” (Suzhou Longbotai Pharmaceuticals Co., Ltd., priority 2020, published 2023)

Key:
Assay type in all cases: biochemical
Settings in all cases: 20 nM
PDE4A1A = target: T1, PDE4A1A (Homo sapiens, UniProt P27815); assay: PDE4 inhibitory activity assay (FAM-cAMP enzymatic reaction), PDE4A1A
T1 construct: purchased BPS 60040
Outline: (§1)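 Read-out: fluorescence-based detection of FAM-cAMP turnover on a multilabel counter, with IC50 derived by fitting inhibition rates. The reaction ran 30 min at room temperature after a 15-min enzyme–compound preincubation, followed by stopping and 60 min further incubation.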

PDE4B1 = target: T2, PDE4B1 (Homo sapiens, UniProt Q07343); assay: PDE4 inhibitory activity assay (FAM-cAMP enzymatic reaction), PDE4B1
T2 construct: purchased BPS 60041
Outline: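 Each isoform is incubated with test compound for 15 min at room temperature before FAM-cAMP substrate starts a 30-min reaction.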

PDE4D2 = PDE4D2 (Homo sapiens, UniProt Q08499); assay: PDE4 inhibitory activity assay (FAM-cAMP enzymatic reaction), PDE4D2
Outline: as §1

T2 sequence (Q07343 whole entry): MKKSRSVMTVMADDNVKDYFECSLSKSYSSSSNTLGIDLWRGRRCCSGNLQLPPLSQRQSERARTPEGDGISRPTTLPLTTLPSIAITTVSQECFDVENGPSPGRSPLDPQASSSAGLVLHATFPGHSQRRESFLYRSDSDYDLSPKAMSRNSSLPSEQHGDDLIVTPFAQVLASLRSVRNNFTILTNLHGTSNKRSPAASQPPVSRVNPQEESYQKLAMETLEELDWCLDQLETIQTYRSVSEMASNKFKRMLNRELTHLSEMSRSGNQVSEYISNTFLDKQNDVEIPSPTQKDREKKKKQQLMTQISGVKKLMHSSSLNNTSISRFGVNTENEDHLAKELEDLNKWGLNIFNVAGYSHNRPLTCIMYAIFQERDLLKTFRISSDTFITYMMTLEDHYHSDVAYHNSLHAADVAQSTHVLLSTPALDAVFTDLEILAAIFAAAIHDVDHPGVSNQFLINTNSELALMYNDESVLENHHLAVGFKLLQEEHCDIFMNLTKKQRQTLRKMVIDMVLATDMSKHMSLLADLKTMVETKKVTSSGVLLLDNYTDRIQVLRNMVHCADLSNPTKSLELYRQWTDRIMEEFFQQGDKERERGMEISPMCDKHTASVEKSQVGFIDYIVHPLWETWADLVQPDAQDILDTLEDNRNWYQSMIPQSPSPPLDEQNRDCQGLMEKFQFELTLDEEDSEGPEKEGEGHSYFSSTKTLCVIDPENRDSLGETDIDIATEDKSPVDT
T1 sequence (P27815 1-647 isoform P27815-4): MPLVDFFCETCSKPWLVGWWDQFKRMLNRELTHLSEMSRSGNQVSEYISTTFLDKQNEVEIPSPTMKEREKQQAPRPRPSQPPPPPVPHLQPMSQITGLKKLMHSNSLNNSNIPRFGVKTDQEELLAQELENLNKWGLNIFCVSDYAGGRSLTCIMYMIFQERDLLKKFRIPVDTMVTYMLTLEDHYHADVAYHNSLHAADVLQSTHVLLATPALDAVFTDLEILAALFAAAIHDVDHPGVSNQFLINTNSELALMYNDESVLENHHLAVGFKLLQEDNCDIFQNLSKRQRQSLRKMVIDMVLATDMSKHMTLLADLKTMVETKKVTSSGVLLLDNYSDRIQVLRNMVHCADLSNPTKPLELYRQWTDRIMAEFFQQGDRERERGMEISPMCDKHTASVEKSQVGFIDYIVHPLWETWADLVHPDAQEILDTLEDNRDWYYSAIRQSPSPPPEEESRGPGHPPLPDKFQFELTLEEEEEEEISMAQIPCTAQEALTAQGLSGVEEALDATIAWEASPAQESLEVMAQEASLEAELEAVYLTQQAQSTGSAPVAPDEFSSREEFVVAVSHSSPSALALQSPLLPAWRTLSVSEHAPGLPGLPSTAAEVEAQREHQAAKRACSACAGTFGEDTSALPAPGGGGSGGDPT
Sequence of PDE4D2 (Q08499 303-809): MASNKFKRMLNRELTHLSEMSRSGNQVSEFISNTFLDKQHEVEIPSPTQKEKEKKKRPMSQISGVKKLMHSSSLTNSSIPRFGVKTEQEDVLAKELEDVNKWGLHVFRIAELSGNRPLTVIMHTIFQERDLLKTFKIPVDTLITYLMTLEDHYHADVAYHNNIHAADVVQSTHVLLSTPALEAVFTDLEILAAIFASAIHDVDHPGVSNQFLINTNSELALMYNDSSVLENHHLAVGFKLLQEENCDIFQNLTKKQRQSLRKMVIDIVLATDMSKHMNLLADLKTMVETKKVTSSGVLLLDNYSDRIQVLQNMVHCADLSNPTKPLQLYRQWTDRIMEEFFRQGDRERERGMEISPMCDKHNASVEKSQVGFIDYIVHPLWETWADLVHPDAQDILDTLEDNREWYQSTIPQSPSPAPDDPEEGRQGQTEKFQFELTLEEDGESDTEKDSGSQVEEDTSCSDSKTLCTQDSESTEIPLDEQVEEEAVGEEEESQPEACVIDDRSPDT

CCOc1nc([C@@H](CS(C)(=O)=O)n2c(=O)[nH]c3cc(-c4ccccc4Cl)ccc32)ccc1OC [Ex. 142, (S)-5-(2-chlorophenyl)-1-(1-(6-ethoxy-5-methoxypyridin-2-yl)-2-(methylsulfonyl)ethyl)-1H-benzo[d]imidazol-2(3H)-one]
PDE4 A1 inhibitory effect at 20 nM (PDE4A1A): + | PDE4 B1 inhibitory effect at 20 nM (PDE4B1): + | PDE4 D2 inhibitory effect at 20 nM (PDE4D2): +

CCOc1nc([C@@H](CS(C)(=O)=O)n2c(=O)[nH]c3c(C)c(Br)cnc32)ccc1OC [Ex. 73, (S)-3-(1-(6-ethoxy-5-methoxypyridin-2-yl)-2-(methylsulfonyl)ethyl)-6-bromo-7-methyl-1H-imidazo[4,5-b]pyridin-2(3H)-one]
PDE4 A1 inhibitory effect at 20 nM (PDE4A1A): + | PDE4 B1 inhibitory effect at 20 nM (PDE4B1): + | PDE4 D2 inhibitory effect at 20 nM (PDE4D2): +

CCOc1nc([C@@H](CS(C)(=O)=O)n2c(=O)n(C)c3c(C)c(-c4ccccc4)cnc32)ccc1OC(F)F [Ex. 66, (S)-3-(1-(5-(difluoromethoxy)-6-ethoxypyridin-2-yl)-2-(methylsulfonyl)ethyl)-1,7-dimethyl-6-phenyl-1H-imidazo[4,5-b]pyridin-2(3H)-one]
PDE4 A1 inhibitory effect at 20 nM (PDE4A1A): + | PDE4 B1 inhibitory effect at 20 nM (PDE4B1): + | PDE4 D2 inhibitory effect at 20 nM (PDE4D2): +

CCOc1nc([C@@H](CS(C)(=O)=O)n2c(=O)[nH]c3cc(-c4cc(F)ccc4F)ccc32)ccc1OC [Ex. 160, (S)-5-(2,5-difluorophenyl)-1-(1-(6-ethoxy-5-methoxypyridin-2-yl)-2-(methylsulfonyl)ethyl)-1H-benzo[d]imidazol-2(3H)-one]
PDE4 A1 inhibitory effect at 20 nM (PDE4A1A): + | PDE4 B1 inhibitory effect at 20 nM (PDE4B1): + | PDE4 D2 inhibitory effect at 20 nM (PDE4D2): +

CCOc1nc([C@@H](CS(C)(=O)=O)n2c(=O)n(C)c3c(C)c(-c4ccccc4F)cnc32)ccc1OC(F)F [Ex. 65, (S)-3-(1-(5-(difluoromethoxy)-6-ethoxypyridin-2-yl)-2-(methylsulfonyl)ethyl)-6-(2-fluorophenyl)-1,7-dimethyl-1H-imidazo[4,5-b]pyridin-2(3H)-one]
PDE4 A1 inhibitory effect at 20 nM (PDE4A1A): + | PDE4 B1 inhibitory effect at 20 nM (PDE4B1): + | PDE4 D2 inhibitory effect at 20 nM (PDE4D2): +

CCOc1nc([C@@H](CS(C)(=O)=O)n2c(=O)n(C)c3cc(-c4ccccc4C(F)(F)F)ccc32)ccc1OC [Ex. 147, (S)-1-(1-(6-ethoxy-5-methoxypyridin-2-yl)-2-(methylsulfonyl)ethyl)-5-(2-(trifluoromethyl)phenyl)-3-methyl-1H-benzo[d]imidazol-2(3H)-one]
PDE4 A1 inhibitory effect at 20 nM (PDE4A1A): + | PDE4 B1 inhibitory effect at 20 nM (PDE4B1): + | PDE4 D2 inhibitory effect at 20 nM (PDE4D2): +

CCOc1nc([C@@H](CS(C)(=O)=O)n2c(=O)n(CCOC)c3cc(-c4ccccn4)cnc32)ccc1OC [Ex. 125, (S)-3-(1-(6-ethoxy-5-methoxypyridin-2-yl)-2-(methylsulfonyl)ethyl)-1-(2-methoxyethyl)-6-(pyridin-2-yl)-1H-imidazo[4,5-b]pyridin-2(3H)-one]
PDE4 A1 inhibitory effect at 20 nM (PDE4A1A): + | PDE4 B1 inhibitory effect at 20 nM (PDE4B1): + | PDE4 D2 inhibitory effect at 20 nM (PDE4D2): +

CCOc1nc([C@@H](CS(C)(=O)=O)n2c(=O)n(C)c3c(C)c(-c4ccc(F)cc4)cnc32)ccc1OC(F)F [Ex. 67, (S)-3-(1-(5-(difluoromethoxy)-6-ethoxypyridin-2-yl)-2-(methylsulfonyl)ethyl)-6-(4-fluorophenyl)-1,7-dimethyl-1H-imidazo[4,5-b]pyridin-2(3H)-one]
PDE4 A1 inhibitory effect at 20 nM (PDE4A1A): + | PDE4 B1 inhibitory effect at 20 nM (PDE4B1): + | PDE4 D2 inhibitory effect at 20 nM (PDE4D2): +

CCOc1nc([C@@H](CS(C)(=O)=O)n2c(=O)n(C)c3cc(-c4ccc(F)cc4C)ccc32)ccc1OC [Ex. 170, (S)-5-(4-fluoro-2-methylphenyl)-1-(1-(6-ethoxy-5-methoxypyridin-2-yl)-2-(methylsulfonyl)ethyl)-3-methyl-1H-benzo[d]imidazol-2(3H)-one]
PDE4 A1 inhibitory effect at 20 nM (PDE4A1A): + | PDE4 B1 inhibitory effect at 20 nM (PDE4B1): + | PDE4 D2 inhibitory effect at 20 nM (PDE4D2): +

CCOc1nc([C@@H](CS(C)(=O)=O)n2c(=O)[nH]c3c(C)c(-c4c(F)cccc4OC)cnc32)ccc1OC [Ex. 46, (S)-6-(6-fluoro-2-methoxyphenyl)-3-(1-(6-ethoxy-5-methoxypyridin-2-yl)-2-(methylsulfonyl)ethyl)-7-methyl-1H-imidazo[4,5-b]pyridin-2(3H)-one]
PDE4 A1 inhibitory effect at 20 nM (PDE4A1A): + | PDE4 B1 inhibitory effect at 20 nM (PDE4B1): + | PDE4 D2 inhibitory effect at 20 nM (PDE4D2): +

CCOc1nc([C@@H](CS(C)(=O)=O)n2c(=O)[nH]c3cc(-c4cccc(F)c4F)cnc32)ccc1OC [Ex. 90, (S)-6-(2,3-difluorophenyl)-3-(1-(6-ethoxy-5-methoxypyridin-2-yl)-2-(methylsulfonyl)ethyl)-1H-imidazo[4,5-b]pyridin-2(3H)-one]
PDE4 A1 inhibitory effect at 20 nM (PDE4A1A): + | PDE4 B1 inhibitory effect at 20 nM (PDE4B1): + | PDE4 D2 inhibitory effect at 20 nM (PDE4D2): +

CCOc1nc([C@H](CS(C)(=O)=O)n2c(=O)[nH]c3cc(-c4ccccn4)ccc32)ccc1OC [Ex. 195, (R)-1-(1-(6-ethoxy-5-methoxypyridin-2-yl)-2-(methylsulfonyl)ethyl)-5-(pyridin-2-yl)-1H-benzo[d]imidazol-2(3H)-one]
PDE4 A1 inhibitory effect at 20 nM (PDE4A1A): − | PDE4 B1 inhibitory effect at 20 nM (PDE4B1): − | PDE4 D2 inhibitory effect at 20 nM (PDE4D2): −

CCOc1nc([C@H](CS(C)(=O)=O)n2c(=O)n(CC(F)(F)F)c3c(C)c(-c4ccccc4F)cnc32)ccc1OC [Ex. 52, (R)-3-(1-(6-ethoxy-5-methoxypyridin-2-yl)-2-(methylsulfonyl)ethyl)-6-(2-fluorophenyl)-7-methyl-1-(2,2,2-trifluoroethyl)-1H-imidazo[4,5-b]pyridin-2(3H)-one]
PDE4 A1 inhibitory effect at 20 nM (PDE4A1A): − | PDE4 B1 inhibitory effect at 20 nM (PDE4B1): − | PDE4 D2 inhibitory effect at 20 nM (PDE4D2): −

CCOc1nc([C@@H](CS(C)(=O)=O)n2c(=O)[nH]c3cc(-c4ccc(C)cc4F)cnc32)ccc1OC [Ex. 115]
PDE4 A1 inhibitory effect at 20 nM (PDE4A1A): + | PDE4 B1 inhibitory effect at 20 nM (PDE4B1): + | PDE4 D2 inhibitory effect at 20 nM (PDE4D2): +

CCOc1nc([C@@H](CS(C)(=O)=O)n2c(=O)[nH]c3cc(-c4ccc(C)cc4F)ccc32)ccc1OC [Ex. 179, (S)-5-(2-fluoro-4-methylphenyl)-1-(1-(6-ethoxy-5-methoxypyridin-2-yl)-2-(methylsulfonyl)ethyl)-1H-benzo[d]imidazol-2(3H)-one]
PDE4 A1 inhibitory effect at 20 nM (PDE4A1A): + | PDE4 B1 inhibitory effect at 20 nM (PDE4B1): + | PDE4 D2 inhibitory effect at 20 nM (PDE4D2): +

CCOc1nc([C@@H](CS(C)(=O)=O)n2c(=O)[nH]c3c(C)c(-c4cccc(F)c4C)cnc32)ccc1OC [Ex. 37, (S)-6-(3-fluoro-2-methylphenyl)-3-(1-(6-ethoxy-5-methoxypyridin-2-yl)-2-(methylsulfonyl)ethyl)-7-methyl-1H-imidazo[4,5-b]pyridin-2(3H)-one]
PDE4 A1 inhibitory effect at 20 nM (PDE4A1A): + | PDE4 B1 inhibitory effect at 20 nM (PDE4B1): + | PDE4 D2 inhibitory effect at 20 nM (PDE4D2): +

CCOc1nc([C@@H](CS(C)(=O)=O)N2C(=O)c3csc(NC(=O)CN4CCCC4)c3C2=O)ccc1OC [Ex. 231, (S)—N-(5-(1-(6-ethoxy-5-methoxypyridin-2-yl)-2-(methylsulfonyl)ethyl)-4,6-dioxo-5,6-dihydro-4H-thieno[3,4-c]pyrrol-1-yl)-2-(pyrrolidin-1-yl)acetamide]
PDE4 A1 inhibitory effect at 20 nM (PDE4A1A): + | PDE4 B1 inhibitory effect at 20 nM (PDE4B1): + | PDE4 D2 inhibitory effect at 20 nM (PDE4D2): +
